Where two headings read alike, the source gives them in different places. Each block holds one molecule with its values, some of them ahead of it.
Key:
[1] = target: T1, GST tagged Bcl-xL ΔC25 protein (Homo sapiens, UniProt Q07817); assay: Alphascreen GST competition assay, Bcl-xL vs biotinylated Bim BH3-26 peptide; conditions: competition with biotinylated Bim BH3-26 peptide (5.0 nM), Bcl-xL 0.6 nM, n.b. = not binding in the assay conditions; for IC50: read-out: Bcl-xLΔ25 IC50
T1 construct: GST tagged Bcl-xL ΔC25 protein
T1 sequence (Q07817 1-208 limits assumed): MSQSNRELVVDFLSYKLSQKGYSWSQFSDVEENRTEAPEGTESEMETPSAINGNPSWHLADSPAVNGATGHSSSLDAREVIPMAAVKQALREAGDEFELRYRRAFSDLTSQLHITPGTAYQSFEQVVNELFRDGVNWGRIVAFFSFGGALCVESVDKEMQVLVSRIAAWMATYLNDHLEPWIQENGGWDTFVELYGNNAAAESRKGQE

[2] = target: GST tagged Mcl-1 protein (Homo sapiens, UniProt Q07820); assay: Alphascreen GST competition assay, Mcl-1 vs biotinylated Bak BH3 peptide; conditions: competition with biotinylated Bak BH3 peptide (4.0 nM), Mcl-1 0.4 nM; n.b. = not binding in the assay conditions
GST tagged Mcl-1 protein, sequence (Q07820 whole entry): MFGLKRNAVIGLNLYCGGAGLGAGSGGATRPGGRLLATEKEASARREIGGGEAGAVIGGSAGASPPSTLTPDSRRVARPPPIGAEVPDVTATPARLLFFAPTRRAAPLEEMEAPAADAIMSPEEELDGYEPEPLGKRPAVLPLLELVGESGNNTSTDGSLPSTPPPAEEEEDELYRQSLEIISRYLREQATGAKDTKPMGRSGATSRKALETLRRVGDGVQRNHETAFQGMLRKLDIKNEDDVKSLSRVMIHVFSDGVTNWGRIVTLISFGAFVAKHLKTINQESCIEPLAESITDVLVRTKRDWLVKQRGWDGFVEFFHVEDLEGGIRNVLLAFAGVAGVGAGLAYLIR

[3] = target: T2, GST tagged Bclw ΔC29 protein (Homo sapiens, UniProt Q92843); assay: Alphascreen GST competition assay, Bcl-w vs biotinylated Bim BH3-26 peptide; type: binding; conditions: for IC50: read-out: Bcl-wΔ29 IC50
T2 construct: GST tagged Bclw ΔC29 protein
T2 sequence (Q92843 1-164 limits assumed): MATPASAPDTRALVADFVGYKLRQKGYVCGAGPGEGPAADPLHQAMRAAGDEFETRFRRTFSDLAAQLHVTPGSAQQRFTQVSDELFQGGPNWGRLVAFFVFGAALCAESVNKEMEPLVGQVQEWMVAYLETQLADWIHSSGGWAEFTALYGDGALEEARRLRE

[4] = competition with biotinylated Bim BH3-26 peptide (3.0 nM), Bcl-w 0.05 nM, n.b. = not binding in the assay conditions
[5] = footnote a: tested in a separate experiment

Bcl-xLΔ25 IC50 (μM) [1]: n.b.^b
Compound: CCCN(C(=O)N[C@@H](CSCC(C)C)C(=O)O)C(=O)c1cccc(C#Cc2ccncc2)c1 [(150)]

IC50 [1]: 53 µM
Compound: CCCN(C(=O)N[C@@H](CSCC(C)C)C(=O)NS(=O)(=O)c1cccc(-c2ccccc2)c1)C(=O)c1cccc(C#Cc2ccccc2)c1 [(155)]

IC50 [1]: 32 µM
Compound: CCCN(C(=O)N[C@@H](CSCc1ccc(OC)cc1)C(=O)O)C(=O)c1cccc(C#Cc2ccccc2)c1 [(115)]

Mcl-1 IC50 (μM) [2]: n.b.^b
Compound: CCCN(C(=O)N[C@@H](CSC(C)C)C(=O)O)C(=O)c1cccc(C#Cc2ccccc2)c1 [(92)]

Bcl-wΔ29 IC50 (μM) [3, 4]: n.b.^b
Compound: O=C([C@H](CSCc1ccccc1)NC(=O)N(Cc1cccc2ccccc12)C(=O)c1cccc(-c2ccc(F)cc2)c1)N1CCOCC1 [(72)]

Bcl-xLΔ25 IC50 (μM) [1]: n.b.^b
Compound: O=C(O)[C@H](CSCc1ccccc1)NC(=O)N(Cc1ccc(Cl)c(Cl)c1)C(=O)c1ccc(-c2ccccc2)cc1 [(85)]

IC50 [3, 4]: 49 µM
Compound: CC(C)CCN(C(=O)N[C@@H](CSCc1ccccc1)C(=O)O)C(=O)c1ccc(-c2ccccc2)cc1 [(42)]

IC50 [3, 4]: 99 µM | IC50 [1]: 151 µM | IC50 [2]: 161 µM
Compound: CCCN(C(=O)N[C@@H](CSCc1ccccc1)C(=O)O)C(=O)c1cccc(/C=C/c2ccccc2)c1 [(87)]

More lines, now with the values behind:

Compound: CCCN(C(=O)N[C@@H](CSCc1ccccc1)C(=O)O)C(=O)c1cccc(CCc2ccccc2)c1 [(88)]
IC50 [3, 4]: 49 µM | IC50 [1]: 51 µM | IC50 [2]: 154 µM

Compound: CCCN(C(=O)N[C@@H](CSCC(C)C)C(=O)O)C(=O)c1cccc(C#Cc2cccc(F)c2)c1 [(140)]
Mcl-1 IC50 (μM) [2]: n.b.^b

Compound: CCCN(C(=O)N[C@@H](CSCC(C)C)C(=O)O)C(=O)c1cccc(C#Cc2ccccc2OC)c1 [(146)]
Mcl-1 IC50 (μM) [2]: n.b.^b

Compound: CCCN(C(=O)N[C@@H](CSCc1ccccc1)C(=O)O)C(=O)c1ccc(/C=C/c2ccccc2)cc1 [(86)]
Mcl-1 IC50 (μM) [2]: n.b.^b

Compound: CCCN(C(=O)N[C@@H](CSCCCc1ccccc1)C(=O)O)C(=O)c1cccc(C#Cc2ccccc2)c1 [(95)]
IC50 [3, 4]: 35 µM | IC50 [1]: 73 µM | IC50 [2]: 94 µM

Compound: CCCN(C(=O)N[C@@H](CSCc1ccccc1)C(=O)O)C(=O)c1cccc(C#Cc2ccc(Br)cc2)c1 [(134)]
IC50 [1]: 51 µM | IC50 [2]: 181 µM

Compound: O=C(O)[C@H](CSCc1ccccc1)NC(=O)N(CC1CCCCC1)C(=O)c1cccc(-c2ccccc2)c1 [(9)]
IC50 [3, 5]: 14 µM

Compound: O=C(O)[C@H](CSCc1ccccc1)NC(=O)N(C(=O)c1cccc(-c2ccccc2)c1)C1CCCCC1 [(10)]
IC50 [3, 5]: 26 µM

Compound: CCCN(C(=O)NCC(=O)O)C(=O)c1cccc(-c2ccccc2)c1 [(71)]
Bcl-wΔ29 IC50 (μM) [3, 4]: n.b.^b

Compound: CCCN(C(=O)N[C@@H](CSCC(C)CC)C(=O)O)C(=O)c1cccc(C#Cc2ccccc2)c1 (stereo partly shown) [(125)]
IC50 [1]: 44 µM

Compound: CCCN(C(=O)CCCc1ccccc1)C(=O)N[C@@H](CSCc1ccccc1)C(=O)O [(106)]
IC50 [3, 4]: 102 µM | IC50 [1]: 182 µM | IC50 [2]: 251 µM

From patent publication US7956216B2, “Alpha-helical mimetics” (The Walter and Eliza Hall Institute of Medical Research, priority 2006, dated 2011)
